US20090048185A1, “Therapeutic Drug for Suppressing Functions of NKT Cells Containing Glycolipid Derivative as Active Ingredient” (priority 2005, published 2009)

How the values were obtained:
[1] = test system: experimental autoimmune encephalomyelitis (EAE); conditions: literature (Miyamoto et al., Nature 2001); cited from earlier work
[2] = test system: collagen induced arthritis (CIA); conditions: literature (Chiba et al., Arthritis Rheum. 2004); cited from earlier work
NKT cells = test: Effect of the compound on NKT cells (liver mononuclear cells incubated with compound); format: cell-based, C57BL/6J mice; conditions: 48 hours incubation, FIG. 4
Procedure: Mononuclear cells were isolated from the liver of C57BL/6J mice (8 weeks old, female) and are incubated with the compound for 48 hours.

Compound	suppression of diseases in EAE [1]	suppression of diseases in CIA [2]	IFN-γ production (ELISA, supernatant) (NKT cells)	IL-4 production (ELISA, supernatant) (NKT cells)	cell proliferation (uptake of tritium thymidine) (NKT cells)
CCCCCCCCCCCCCCCCCCCCCCCC(=O)N[C@@H](COC1OC(CO)C(O)C(O)C1O)[C@H](O)[C@H](O)CCCCC (some centres unmarked) [OCH]	high effectiveness	high effectiveness	–	–	–
CCCCCCCCCCCCCCCCCCCCCCCCCC(=O)N[C@@H](COC1OC(CO)C(O)C(O)C1O)[C@H](O)[C@H](O)CCCCCCCCCCCCCC (stereo partly drawn) [α-GC, α-galactosyl ceramide]	–	–	induced	induced	induced
